In PubChem BioAssay AID1963850 (Molecular Pharmacology Branch, DTP, NCI, 2024):
Values joined by “and” are separate entries in the source; they are usually repeats but may differ in a detail not shown here. Equal values may be shown once.

Tested on: 192522-019-R-J2-PDC complex tumor spheroid viability
Assay: Anticancer human tumor 192522-019-R-J2-PDC patient-derived colon adenocarcinoma cell line growth inhibition [POLQ]
Settings: for viability, T/C: stronger effect = lower value
Experimental: Multicellular complex tumor spheroid response to Polymerase (POL) inhibitors (novobiocin, ART-558, RP6685) in combination with a variety of drugs and investigational agents in selected tumor cell lines
The POL inhibitors (novobiocin, ART-558, and RP6685) were evaluated both individually and in combination with standard of care and investigational anticancer small molecules within a complex spheroid model of solid tumors. . Complex spheroids include a stromal component modeled by human endothelial cells (HUVEC) and fibroblasts modeled by human mesenchymal stem cells (MSCs). The concentration ranges selected for each drug and investigational agent were based upon clinically achievable concentrations if the clinical Cmax of the agent was known.
Compounds. The drugs and investigational agents: novobiocin (NSC847541), ART-558 (NSC835418), RP-6685 (NSC848927), peposertib (NSC802822), ceralasertib (NSC780249), elimusertib (NSC800525), camonsertib (NSC841442), AZD-1390 (NSC803789), olaparib (NSC753686), talazoparib (NSC767125), rucaparib (NSC756644), sotorasib (NSC818433), MRTX-1133 (NSC836407), SN-38 (NSC673596), topotecan (NSC609699), epotoside (NSC141540), doxorubicin (NSC123127), gemcitabine (NSC613327), 5-fluorouracil (NSC19893), paclitaxel (NSC125973), vemurafenib (NSC761431), MSA-2 (NSC828583), SN-011 (NSC837082), adavosertib (NSC754352), prexasertib (NSC758257), carboplatin (NSC241240) and oxaliplatin (NSC266046), were obtained from the National Cancer Institute (NCI) Developmental Therapeutics Program Chemical Repository (21). The FDA-approved anticancer drug set is available from the Developmental Therapeutics Program at https://dtp.cancer.gov/organization/dscb/obtaining/. […] The stock solutions were prepared in dimethyl sulfoxide (DMSO, Sigma-Aldrich, St. Louis, MO, cat. D2650), except for the platinum compounds which were prepared in saline (Quality Biological, Gaithersburg, MD, cat. 114-055-101), at 800-fold the tested concentration and stored at -70 degrees C prior to their use. All drugs and investigational agents were tested over a range starting from a high concentration at or near the clinical Cmax and decreasing in half-log increments. If the clinical Cmax for an agent had not been determined, the highest concentration tested was 10 microM, except for SN-38, which was tested at a high concentration of 1 microM.
Cell Culture. All cells were maintained in an incubator at 37 degrees C and 5% CO2 with 95% humidity. The PDC lines were cultured according to standard operating procedures established by the NCI PDMR (https://pdmr.cancer.gov). Table 3 of the manuscript, lists the cell lines along with the number of the three cell types plated to form the mct-spheroids and media for tumor cell growth. After thawing, all PDC lines, except 997537-175-T-J1-PDC and 415267-285-R-J2-PDC, were cultured in Matrigel-coated flasks prepared with a working solution of 1X Ham's F-12 nutrient mix, without supplementation (Thermo Fisher Scientific, cat. 11765054), 100 U/mL penicillin-streptomycin (Thermo Fisher Scientific, cat. 15140122), and 2.5% Matrigel (Corning Inc., Corning, NY, cat. 354248) for the first three passages. The two PDC lines 997537-175-T-J1-PDC and 415267-285-R-J2-PDC were cultured on uncoated flasks. The 857933-349-R-J2-PDC line was cultured in 6C/Colon 1B media containing advanced DMEM/F-12 (Thermo Fisher Scientific, cat. 12634028), 10 mM HEPES (Thermo Fisher Scientific, cat. 15630080), 1X GlutaMAX supplement (Thermo Fisher Scientific, cat. 35050061), 0.1 mg/mL primocin (InvivoGen, San Diego, CA, cat. ant-pm-2), 10% defined fetal bovine serum, heat inactivated (HyClone Laboratories Inc., Logan, UT, cat. SH30070.03HI), 50% L-WRN conditioned media (ATCC, cat. CRL-3276), 1.25 mM N-Acetyl-L-cysteine (Sigma-Aldrich, cat. A9165), 10 mM nicotinamide (Sigma-Aldrich, cat. N0636), 1X B-27 supplement (Thermo Fisher Scientific, cat. 17504044), 1X N-2 supplement (Thermo Fisher Scientific, cat. […]
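Also: spheroids exposed to drugs for seven days before reading.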
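For viability, T/C in this document: 100% = DMSO vehicle control viability in luminescence.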

CC(=O)O[C@H]1C(=O)[C@@]2(C)[C@H]([C@H](OC(=O)c3ccccc3)[C@]3(O)C[C@H](OC(=O)[C@H](O)[C@@H](NC(=O)c4ccccc4)c4ccccc4)C(C)=C1C3(C)C)[C@]1(OC(C)=O)CO[C@@H]1C[C@@H]2O + Cc1cccc(N(C)C(=O)C2C(O)CCN2c2nc(C)cc(C(F)(F)F)c2C#N)c1
IC50 (curve of first compound, second compound 0.0316 µM): > 3 µM
IC50 (curve of first compound, second compound 0.1 µM): > 3 µM
IC50 (curve of first compound, second compound 0.316 µM): > 3 µM
IC50 (curve of first compound, second compound 1 µM): > 3 µM
IC50 (curve of first compound, second compound 3.16 µM): > 3 µM
IC50 (curve of first compound, second compound 10 µM): > 3 µM
viability, T/C (second compound 0.0316 µM, first compound 0.00949 µM): 90%
viability, T/C (second compound 0.0316 µM, first compound 0.03 µM): 69.4%
viability, T/C (second compound 0.0316 µM, first compound 0.0949 µM): 52.2%
viability, T/C (second compound 0.0316 µM, first compound 0.3 µM): 59%
viability, T/C (second compound 0.0316 µM, first compound 0.949 µM): 56.8%
viability, T/C (second compound 0.0316 µM, first compound 3 µM): 54.7%
viability, T/C (second compound 0.1 µM, first compound 0.00949 µM): 98.5%
viability, T/C (second compound 0.1 µM, first compound 0.03 µM): 74.3%
viability, T/C (second compound 0.1 µM, first compound 0.0949 µM): 53.1%
viability, T/C (second compound 0.1 µM, first compound 0.3 µM): 64.4%
viability, T/C (second compound 0.1 µM, first compound 0.949 µM): 60.4%
viability, T/C (second compound 0.1 µM, first compound 3 µM): 57.9%
viability, T/C (second compound 0.316 µM, first compound 0.00949 µM): 92.1%
viability, T/C (second compound 0.316 µM, first compound 0.03 µM): 79.5%
viability, T/C (second compound 0.316 µM, first compound 0.0949 µM): 61.8%
viability, T/C (second compound 0.316 µM, first compound 0.3 µM): 58.4%
viability, T/C (second compound 0.316 µM, first compound 0.949 µM): 64.3%
viability, T/C (second compound 0.316 µM, first compound 3 µM): 62.4%
viability, T/C (second compound 1 µM, first compound 0.00949 µM): 102%
viability, T/C (second compound 1 µM, first compound 0.03 µM): 84%
viability, T/C (second compound 1 µM, first compound 0.0949 µM): 61.1%
viability, T/C (second compound 1 µM, first compound 0.3 µM): 60.3%
viability, T/C (second compound 1 µM, first compound 0.949 µM): 54.3%
viability, T/C (second compound 1 µM, first compound 3 µM): 55.5%
viability, T/C (second compound 3.16 µM, first compound 0.00949 µM): 105%
viability, T/C (second compound 3.16 µM, first compound 0.03 µM): 79.8%
viability, T/C (second compound 3.16 µM, first compound 0.0949 µM): 61.8%
viability, T/C (second compound 3.16 µM, first compound 0.3 µM): 59.5%
viability, T/C (second compound 3.16 µM, first compound 0.949 µM): 65.8%
viability, T/C (second compound 3.16 µM, first compound 3 µM): 57.4%
viability, T/C (second compound 10 µM, first compound 0.00949 µM): 94%
viability, T/C (second compound 10 µM, first compound 0.03 µM): 67.8%
viability, T/C (second compound 10 µM, first compound 0.0949 µM): 58.3%
viability, T/C (second compound 10 µM, first compound 0.3 µM): 58.9%
viability, T/C (second compound 10 µM, first compound 0.949 µM): 56.8%
viability, T/C (second compound 10 µM, first compound 3 µM): 63.3%

COc1cc2cc(C(=O)CCC(=O)O)sc2cc1OC
viability, T/C (compound 0.0316 µM): 103% and 106% and 111%
viability, T/C (compound 0.1 µM): 102% and 92.6% and 99.8%
viability, T/C (compound 0.316 µM): 90.1% and 107% and 96.3%
viability, T/C (compound 1 µM): 96.8% and 99.9% and 102%
viability, T/C (compound 3.16 µM): 115% and 103% and 100%
viability, T/C (compound 10 µM): 100% and 98.1% and 91.6%
IC50 (curve of compound): > 10 µM
